Results from PubChem BioAssay AID2060333 (Molecular Pharmacology Branch, DTP, NCI, 2025).

Test system: 845751-090-R-J2-PDC tumor spheroid viability
Assay: Anticancer human tumor 845751-090-R-J2-PDC patient-derived head and neck squamous carcinoma cell line growth inhibition [IpAb]
Conditions: spheroids with HUVEC and MSC; for IC50: curve of first compound; for viability, T/C: stronger effect = lower value
How it was run: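 Combinations with ipatasertib or abemaciclib were tested on tumour spheroids holding HUVEC (25%) and MSC (15%) alongside 60% malignant cells. Top concentration was at or near clinical Cmax (10 microM if undefined), descending in half-log steps.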

[1] = second compound 0.1 µM, first compound 0.0316 µM
[2] = second compound 0.1 µM, first compound 0.1 µM
[3] = second compound 0.1 µM, first compound 0.316 µM
[4] = second compound 0.1 µM, first compound 1 µM
[5] = second compound 0.316 µM, first compound 0.0316 µM
[6] = second compound 0.316 µM, first compound 0.1 µM
[7] = second compound 0.316 µM, first compound 0.316 µM
[8] = second compound 0.316 µM, first compound 1 µM
[9] = second compound 1 µM, first compound 0.0316 µM
[10] = second compound 1 µM, first compound 0.1 µM
[11] = second compound 1 µM, first compound 0.316 µM
[12] = second compound 1 µM, first compound 1 µM
[13] = second compound 3.16 µM, first compound 0.0316 µM
[14] = second compound 3.16 µM, first compound 0.1 µM
[15] = second compound 3.16 µM, first compound 0.316 µM
[16] = second compound 3.16 µM, first compound 1 µM
[17] = second compound 10 µM, first compound 0.0316 µM
[18] = second compound 10 µM, first compound 0.1 µM
[19] = second compound 10 µM, first compound 0.316 µM
[20] = second compound 10 µM, first compound 1 µM
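Further: spheroids exposed to compounds for 7 days before readout.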
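Wherever viability, T/C is given: CTG3D luminescence normalised so that 100% = DMSO vehicle control.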

SMILES | IC50 (second compound 0.1 µM) [nM] | IC50 (second compound 0.316 µM) [nM] | IC50 (second compound 1 µM) [nM] | IC50 (second compound 3.16 µM) [nM] | IC50 (second compound 10 µM) [nM] | viability, T/C [1] [%] | viability, T/C [2] [%] | viability, T/C [3] [%] | viability, T/C [4] [%] | viability, T/C [5] [%] | viability, T/C [6] [%] | viability, T/C [7] [%] | viability, T/C [8] [%] | viability, T/C [9] [%] | viability, T/C [10] [%] | viability, T/C [11] [%] | viability, T/C [12] [%] | viability, T/C [13] [%] | viability, T/C [14] [%] | viability, T/C [15] [%] | further results
COc1c(OCCCN2CCOCC2)ccc2c3n(c(=NC(=O)c4cnc(N)nc4)nc12)CCN3 + CC(C)NCC(C(=O)N1CCN(c2ncnc3c2C(C)CC3O)CC1)c1ccc(Cl)cc1 | 7.18 | < 3.16 | < 3.16 | < 3.16 | < 3.16 | 32.1 | 19.5 | 16.5 | 3.52 | 38.4 | 17 | 9.83 | 5.73 | 17.1 | 9.67 | 5.4 | 2.49 | 17.7 | 7.76 | 3.93 | viability, T/C (second compound 0.1 µM, first compound 0.00316 µM): 60.9%; viability, T/C (second compound 0.1 µM, first compound 0.01 µM): 46.1%; viability, T/C (second compound 0.316 µM, first compound 0.00316 µM): 26.4%; viability, T/C (second compound 0.316 µM, first compound 0.01 µM): 27.3%; viability, T/C (second compound 1 µM, first compound 0.00316 µM): 34.6%; viability, T/C (second compound 1 µM, first compound 0.01 µM): 21.8%; viability, T/C (second compound 3.16 µM, first compound 0.00316 µM): 22.5%; viability, T/C (second compound 3.16 µM, first compound 0.01 µM): 21.9%; viability, T/C [16]: 2.76%; viability, T/C (second compound 10 µM, first compound 0.00316 µM): 17.4%; viability, T/C (second compound 10 µM, first compound 0.01 µM): 17.7%; viability, T/C [17]: 13.4%; viability, T/C [18]: 5.23%; viability, T/C [19]: 2.57%; viability, T/C [20]: 1.62%
Cc1nc(NC(=O)N2CCCC2C(N)=O)sc1-c1ccnc(C(C)(C)C(F)(F)F)c1 (stereo not given) + CC(C)NCC(C(=O)N1CCN(c2ncnc3c2C(C)CC3O)CC1)c1ccc(Cl)cc1 | 108 | < 31.6 | < 31.6 | < 31.6 | < 31.6 | 49.2 | 54 | 27.6 | 19.2 | 24.5 | 30.9 | 20.9 | 15.6 | 17.4 | 21.7 | 18 | 13.8 | 16 | 15.8 | 14.1 | viability, T/C (second compound 0.1 µM, first compound 3.16 µM): 15.5%; viability, T/C (second compound 0.1 µM, first compound 10 µM): 8.29%; viability, T/C (second compound 0.316 µM, first compound 3.16 µM): 13.1%; viability, T/C (second compound 0.316 µM, first compound 10 µM): 7.03%; viability, T/C (second compound 1 µM, first compound 3.16 µM): 10.6%; viability, T/C (second compound 1 µM, first compound 10 µM): 7.97%; viability, T/C [16]: 12.7%; viability, T/C (second compound 3.16 µM, first compound 3.16 µM): 9.92%; viability, T/C (second compound 3.16 µM, first compound 10 µM): 7.77%; viability, T/C [17]: 13.9%; viability, T/C [18]: 13.1%; viability, T/C [19]: 17.2%; viability, T/C [20]: 12%; viability, T/C (second compound 10 µM, first compound 3.16 µM): 9.58%; viability, T/C (second compound 10 µM, first compound 10 µM): 5.74%
